Read-outs that look alike come from different tables or passages of the source. Marks after values point to notes of the source that are not given here.
What was measured:
[1] = tested on: Colo 205 human colonic adenocarcinoma cell line; assay: Cytotoxicity (MTT) on sensitive Colo 205 cells; assay type: cell-based; details: for IC50: Homo sapiens, read-out: Colo 205 (IC50 µM) Mean; for SI MRC-5/Colo 205: ratio IC50 non-tumour cells / IC50 cancer cells
Text: (§1) Three cell lines have been used in this study: the doxorubicin-sensitive Colo 205 (CCL-222, ATCC, Manassas, VA, USA) human colonic adenocarcinoma cell line; the multidrug resistant Colo 320/MDR-LRP expressing P-gp (MDR1)-LRP (CCL-220.1, ATCC) human colonic adenocarcinoma cell line; and the MRC-5 human embryonal lung fibroblast cell line (CCL-171, ATCC). The colon adenocarcinoma cell lines were purchased from LGC Promochem (Teddington, UK), and the MRC-5 cell line was purchased from Sigma-Aldrich (Merck KGaA, Darmstadt, Germany). Their culture conditions are as follows: Colo 205 (CCL-222, ATCC) and Colo 320/MDR-LRP expressing P-gp (MDR1)-LRP (CCL-220.1, ATCC) human colon adenocarcinoma cell lines were cultured in RPMI 1640 medium, supplemented with 10% FBS, 2 mM L-glutamine, 1 mM Na-pyruvate, and […]. The cell lines were incubated at 37 °C, 5% CO2, and 95% air atmosphere. The semi-adherent human colon cancer cells were detached with a Trypsin-Versene (EDTA) solution for 5 min at 37 °C. MRC-5 human embryonal lung fibroblast cells were cultured in EMEM containing 4.5 g/L of glucose and supplemented with a non-essential amino acid mixture, a selection of vitamins, and 10% FBS. The cell lines were incubated at 37 °C, 5% CO2, and 95% air atmosphere.
(§2) The effects of increasing concentrations of the compounds on cell growth were tested in 96-well flat-bottomed microtiter plates. Moreover, 10^4 of human colonic adenocarcinoma cells in 100 μL of the medium (RPMI-1640) were added to each well, except for the medium control wells. The adherent human embryonic lung fibroblast cell line was seeded in the EMEM medium for 4 h before the assay. The two-fold serial dilutions of the compounds were made in a separate plate (0.19–100 μM), and then transferred to the plates containing the adherent corresponding cell line. Culture plates were incubated at 37 °C for 24 h. At the end of the incubation period, 20 μL of MTT (thiazolyl blue tetrazolium bromide) solution (from a 5 mg/mL stock solution) were added to each well. After incubation at 37 °C for 4 h, 100 μL of sodium dodecyl sulfate (SDS) solution (10% SDS in 0.01 M HCl) was added to each well, and the plates were further incubated at 37 °C overnight. Cell growth was determined by measuring the optical density (OD) at 540 nm (ref. 630 nm) with a Multiscan EX ELISA reader (Thermo Labsystems, Cheshire, WA, USA). Inhibition of cell growth was expressed as IC50 values, defined as the inhibitory dose that reduces the growth of the cells exposed to the tested compounds by 50%. IC50 values and the SD of triplicate experiments were calculated by using GraphPad Prism software version 5.00 for Windows, with a non-linear regression curve fit (GraphPad Software, San Diego, CA, USA; www.graphpad.com, accessed on 12 July 2021). Doxorubicin (from a 2 mg/mL stock solution, Teva Pharmaceuticals) was used as a positive control.
(§3) The selectivity indexes (SI) were calculated as the ratio of the IC50 value in the non-tumour cells and the IC50 in the cancer cell lines. The compound’s activity towards cancer cells is considered as strongly selective if the selectivity index (SI) value is higher than 6, moderately selective if 3 < SI < 6, slightly selective if 1 < SI < 3, and non-selective if SI is lower than 1 [16].

[2] = Cytotoxicity (MTT) on normal MRC-5 fibroblasts; assay type: cell-based; details: human
Text: as §1, §2

B16 (skin melanoma) [3] = assay: Cytotoxicity on B16 cells; assay type: cell-based, murine; details: Mus musculus
Method: (§4) The activity of selenoesters was tested on several cancer cell lines, including HepG2 (hepatocellular carcinoma, CCL-23TM, ATCC); HeLa (cervical adenocarcinoma, CCL-2TM, ATCC); B16 (skin melanoma, CCL-6322TM, ATCC); and a non-cancerous cell line, HDF (human dermal fibroblasts, Sigma-Aldrich). HepG2, HeLa, B16, and HDF cell lines were cultivated in EMEM medium supplemented with 10% FBS, 2 mM L-glutamine, and 1% penicillin-streptomycin mixture. The HaCaT cell line was cultivated in DMEM medium supplemented with 10% FBS and 1% penicillin-streptomycin mixture. All of the cells were cultivated in a CO2 incubator (5% CO2, 37 °C). Twice per week, the cell lines were passaged according to a standardized protocol with a trypsin-EDTA solution.
as §3

HaCaT cell line = assay: Toxicity on HaCaT cells (IC10 used as dose); assay type: cell-based; details: Homo sapiens
Method: as §4, with “solution. […]” for “solution.”
Wound healing activity of selenoesters was evaluated as the ability of the cells to migrate and close the gap created on the monolayer of human keratinocytes (HaCaT cell line). The tested substances were applied in the highest possible non-toxic concentration (IC10, concentration inhibiting 10% of the population). In general, ketone-selenoesters were more toxic (except K4 and K1) than cyano-selenoesters (except N4); therefore, they were applied at lower doses (0.17–0.30 µM) when compared to cyanoselenoesters (0.36–0.64 µM). Compounds K1, K4, and N4 were applied at a concentration of 0.30, 0.46, and 0.20 µM, respectively. As could be seen in Table 8, all ketone-selenoesters stimulated wound healing more effectively in comparison to both untreated control (p < 0.0000005) and allantoin (p < 0.00005). […] Only samples N1, N2, N4, and N7 closed effectively the damaged wound in 24 h, with the gap closure around 70%.

B16 (skin melanoma) [4] = assay: Cytotoxicity on B16 cells; assay type: cell-based, murine; details: ratio IC50 non-tumour cells / IC50 cancer cells
[5] = concentration inhibiting 10% of the population, highest non-toxic concentration, read-out: Dose IC10
[6] = 24 h, MTT, read-out: MRC-5 (IC50 µM) Mean

Compound | IC50 ([1]; COLO 205, 24 h, MTT) [µM] | SI MRC-5/Colo 205 [1] | IC50 at 24 h [2] [µM] | IC50 (B16 (skin melanoma) [3]) [µM] | IC10 (HaCaT cell line; [5]) [µM] | SI MRC-5/B16 (B16 (skin melanoma) [4]) | IC50 ([1]; COLO 205, 24 h) [µM] | IC50 at 24 h [2, 6] [µM] | IC10 (HaCaT cell line; read-out: Dose IC10 (µM)) [µM]
CC(=O)C[Se]C(=O)c1cccs1 [K1, Se-(2-Oxopropyl) Thiophene-2-carboselenoate] | 1.53 | 1.46 | 2.24 | 1.4 | 0.3 | 2.6 |  |  | 
CC(=O)C[Se]C(=O)c1ccccc1F [K2, Se-(2-Oxopropyl) 2-Fluorobenzoselenoate] | 3.35 |  | 2.53 | 1.2 | 0.2 | 2.1 |  |  | 
CC(=O)C[Se]C(=O)c1ccc(Br)cc1 [K3, Se-(2-Oxopropyl) 4-Bromobenzoselenoate] |  | 1.25 |  | 1.7 |  | 1.3 | 2.28 | 2.86 | 0.24
CC(=O)C[Se]C(=O)c1ccccc1C(F)(F)F [K4, Se-(2-Oxopropyl) 2-(Trifluoromethyl)benzoselenoate] |  |  |  | 2 |  | 1.4 | 1.05 | 3.63 | 0.46
CC(=O)C[Se]C(=O)c1cccc(C(F)(F)F)c1 [K5, Se-(2-Oxopropyl) 3-(Trifluoromethyl)benzoselenoate] | 2.14 | 1.45 | 3.11 | 1.1 | 0.25 | 2.8 |  |  | 
CC(=O)C[Se]C(=O)c1ccc(F)c(Cl)c1 [K6, Se-(2-Oxopropyl) 3-Chloro-4-fluorobenzoselenoate] | 2.1 | 1.73 | 3.62 | 1.3 | 0.22 | 2.8 |  |  | 
CC(=O)C[Se]C(=O)c1ccc(C(C)(C)C)cc1 [K7, Se-(2-Oxopropyl) 4-(Tert-butyl)benzoselenoate] |  | 1.38 |  | 1.4 |  | 2.7 | 2.69 | 3.72 | 0.24
CC(=O)C[Se]C(=O)c1cc(F)c(F)cc1F [K8, Se-(2-Oxopropyl) 2,4,5-Trifluorobenzoselenoate] | 2.24 | 1.12 | 2.5 | 1.4 | 0.17 | 1.8 |  |  | 
N#CC[Se]C(=O)c1cccc(F)c1 [N2, Se-(Cyanomethyl) 3-Fluorobenzoselenoate] | 2.96 | >6 * | > 100 | 2.6 | 0.36 | >6 * |  |  | 
N#CC[Se]C(=O)c1ccc(Br)cc1 [N3, Se-(Cyanomethyl) 4-Bromobenzoselenoate] | 2.1 | >6 * | > 100 | 2.8 | 0.64 | >6 * |  |  | 
N#CC[Se]C(=O)c1ccccc1C(F)(F)F [N4, Se-(Cyanomethyl) 2-(Trifluoromethyl)benzoselenoate] | 1.97 |  | > 100 | 1.4 | 0.2 |  |  |  | 
N#CC[Se]C(=O)c1cc(C(F)(F)F)cc(C(F)(F)F)c1 [N7, Se-(Cyanomethyl) 3,5-Bis(trifluoromethyl)benzoselenoate] | 1.98 |  | > 100 | 1.6 | 0.61 |  |  |  | 

Source: paper PMC8465942, “Cyano- and Ketone-Containing Selenoesters as Multi-Target Compounds against Resistant Cancers” (Cancers, 2021)
